Measured values: patent publication US7772425B2, “Vitamin D receptor modulators” (Eli Lilly and Company, priority 2002, dated 2010)
pEC50, pIC50: −log10 of the molar value. Values joined by “and” are separate entries in the source; they are usually repeats but may differ in a detail not shown here. Equal entries are not always repeated. Where two headings read alike, the source gives them in different places.

Legend:
[1] = system: KERtr cells (Human skin keratinocyte); assay: Keratinocyte proliferation assay; assay type: cell-based; details: BrdU incorporation, read-out: Kera. Prolif. IC50
female DBF mice = assay: Mouse hypercalcemia assay; assay type: in vivo; details: orally via gavage for 6 days; serum ionized calcium 6 hours after last dosing
Description: 4. The Mouse Hypercalcemia Assay
(4) Materials and Method for The Mouse Hypercalcemia Assay: […]

rat osteocalcin promoter = assay: OCN (osteocalcin) promoter assay in RG-15 (ROS 17/2.8) cells; assay type: cell-based; details: 48 hr treatment, luciferase
Summary of the method: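 Rat osteoblast-like RG-15 (ROS 17/2.8) cells stably carrying a luciferase reporter driven by the osteocalcin promoter, treated with compounds in DMSO (0.01% v/v final) in medium with 2% FBS. After 48 hr at 37 °C, cells were lysed and luciferase activity measured.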

IL-10 = assay: human IL-10 induction assay in PBMCs; assay type: cell-based; details: TPA/PHA treated human PBMCs, IL-10 immunoassay of supernatant
Description: The evaluation of the novel compounds of the invention for psoriasis is done using the Keratinocyte Proliferation Assay in combination with other assays that measure inhibition of IL-2 production and stimulation of IL-10 production in peripheral blood mononuclear cells (PBMCs).
6. The IL-10 Induction Assay
This is an in vitro efficacy assay for psoriasis, abscess and adhesion. Psoriasis involves both keratinocytes and immune cells. IL-10 is a unique cytokine because it is anti-inflammatory and immunosuppressive. This assay tells us whether a VDRM is able to function as an agonist in PBMCs (primary blood mononuclear cells) or not. A lower EC50 value is desirable in this assay since a compound with a lower EC50 value will be a better agonist in PBMCs.
(6) Materials and Method for human IL-10 Induction Assay:
Isolation of peripheral blood mononuclear cells (PBMCs):
• A. Collect 50 ml of human blood and dilute with media, RPMI-1640. • B. Prepare sterile tubes with ficol. • C. Add diluted blood to tubes. • D. Centrifuge. • E. Discard the top layer and collect the cells from middle layer. • F. Divide all cells into four tubes and add media. • G. Centrifuge. • H. Aspirate off media and resuspend. • I. Collect all cells • J. Centrifuge. at 1200 rpm for 10 minutes. • K. Resuspend in RPMI-1640 with 2% FBS and count cells Stimulation of PBMC: • L. Prepare TPA in DMSO. • M. Dissolve PHA in water. • N. Plate TPA/PHA treated PBMCs in well plates. • O. Incubate. Treatment: • P. Prepare all compound dilutions in plain RPMI-1640 media. • Q. Add diluted compound. • R. Incubate. Sample Collection and assay: • S. Remove all the cells by centrifugation and assay the supernatant for IL-10 by immunoassay. • 1) T. Perform IL-10 assay using anti-human IL-10 antibody coated beads, as described by the manufacturer (Linco Research Inc., St. Charles, Mo.).

[2] = Homo sapiens, Keratinocyte, 72 h

With CCC(CC)(c1ccc(C(=O)O)cc1)c1ccc(OCC(O)C(C)(C)C)c(Cl)c1 (single isomer, unassigned) [Ex. 37, 3′-[3-chloro-4-(2-hydroxy-3,3-dimethylbutoxy)phenyl]-3′-[4-carboxyphenyl]pentane] the pIC50 ([1]; 72 hr) was 7.26, the “Mouse Hypercal” value (female DBF mice) was 1000 µg/kg/day and the pEC50 (rat osteocalcin promoter) was 7.92. For the same molecule, the pIC50 (IL-10; Homo sapiens, PBMC) was 6.64.
With CCC(CC)(c1ccc(-c2nnn[nH]2)cc1)c1ccc(OCC(O)C(C)(C)C)c(C)c1 (single isomer, unassigned) [Ex. 44, 1-(4-{1-Ethyl-1-[4-(1H-tetrazol-5-yl)-phenyl]-propyl}-2-methyl-phenoxy)-3,3-dimethyl-butan-2-ol] the pIC50 [1, 2] was 7.55, the “Mouse Hypercal” value (female DBF mice) was less than 300 µg/kg/day and the pEC50 (rat osteocalcin promoter) was 10.00. The pIC50 (IL-10) was 8.22.
With CCC(CC)(c1ccc(-c2nnn[nH]2)cc1)c1ccc(OCC(O)C(C)(C)C)c(C)c1 (single isomer, unassigned) [Ex. 45, 1-(4-{1-Ethyl-1-[4-(1H-tetrazol-5-yl)-phenyl]-propyl}-2-methyl-phenoxy)-3,3-dimethyl-butan-2-ol] the pIC50 ([1]; 72 hr) was 7.49, the “Mouse Hypercal” value (female DBF mice) was 300 µg/kg/day and the pEC50 (rat osteocalcin promoter) was 9.15. The pIC50 (IL-10) was 7.82.
In the case of CCC(CC)(c1ccc(CC2SC(=O)NC2=O)c(C)c1)c1ccc(OCC(O)C(C)(C)C)c(C)c1 (single isomer, unassigned) [Ex. 50, 5-(4-{1-ethyl-1-[4-(2-hydroxy-3,3-dimethyl-butoxy)-3-methyl-phenyl]-propyl}-2-methyl-benzyl)-thiazolidine-2,4-dione], the pIC50 ([1]; 72 hr) was 8.52, the “Mouse Hypercal” value (female DBF mice) was 300 µg/kg/day and the pEC50 (rat osteocalcin promoter) was 9.70. For the same molecule, the pIC50 (IL-10) was 8.40.
CCC(CC)(c1ccc(CC2SC(=O)NC2=O)c(C)c1)c1ccc(OCC(O)C(C)(C)C)c(C)c1 (single isomer, unassigned) [Ex. 51, 5-(4-{1-ethyl-1-[4-(2-hydroxy-3,3-dimethyl-butoxy)-3-methyl-phenyl]-propyl}-2-methyl-benzyl)-thiazolidine-2,4-dione] was tested, and the pIC50 ([1]; 72 hr) was 7.59, the “Mouse Hypercal” value (female DBF mice) was 300 µg/kg/day and the pEC50 (rat osteocalcin promoter) was 8.85. For the same molecule, the pIC50 (IL-10) was 7.72.
In the case of CCC(CC)(c1ccc(OC(C)C(O)C(C)(C)C)c(C)c1)c1ccc(C(=O)N(C)CC(=O)O)c(C)c1 (single isomer, unassigned) [Ex. 52, [(4-{1-Ethyl-1-[4-(2-hydroxy-1,3,3-trimethyl-butoxy)-3-methyl-phenyl]-propyl}-2-methyl-benzoyl)-methyl-amino]-acetic acid], the pIC50 ([1]; 72 hr) was 7.28, the “Mouse Hypercal” value (female DBF mice) was greater than 3000 µg/kg/day and the pEC50 (rat osteocalcin promoter) was 8.40. For the same molecule, the pIC50 (IL-10; Homo sapiens, PBMC) was 6.81.
With CCC(CC)(c1ccc(CCC(=O)O)c(C)c1)c1ccc(OCC(=O)C(C)(C)C)c(C)c1 [Ex 6, 3′-[4-(2-oxo-3,3-dimethylbutoxy)-3-methylphenyl]-3′-[4-(2-carboxylethyl)-3-methylphenyl]pentane] the pIC50 [1, 2] was 8.70, the “Mouse Hypercal” value (female DBF mice) was 10 µg/kg/day and the pEC50 (rat osteocalcin promoter; Rattus norvegicus, 48 h) was 9.52. It also gave a pIC50 (IL-10; Homo sapiens, PBMC) of 7.26.
In the case of CCC(CC)(c1ccc(OC(C)C(O)C(C)(C)C)c(C)c1)c1ccc(C(=O)N[C@H](C)C(=O)O)c(C)c1 (some centres unmarked) [Ex. 46, (D)-2-(4-{1-ethyl-1-[4-(2-hydroxy-1,3,3-trimethyl-butoxy)-3-methyl-phenyl]-propyl}-2-methyl-benzoylamino)-propionic acid], the pIC50 ([1]; 72 hr) was 7.68, the “Mouse Hypercal” value (female DBF mice) was 3000 µg/kg/day and the pEC50 (rat osteocalcin promoter) was 8.70 and 8.52. The pIC50 (IL-10; Homo sapiens, PBMC) was 7.48.
